Data on one molecule can be found in patent publication US20040038233A1, “Diagnosis kit for mycobacterium species indentification and drug-resistance detection and manufacturing method thereof” (priority 2000, published 2004).

For assay [1], the system named is Mycobacterium tuberculosis. In kind it is cell-based.
The subject of assay [2] is strains having mutations of 511 (Leu>Pro), 516 (Asp>Tyr), 516 (Asp>Val), and 522 (Ser>Leu). The note with it: strains with mutations 511 (Leu>Pro); cited from earlier work.

For the molecule `CO[C@H]1/C=C/O[C@@]2(C)Oc3c(C)c(O)c4c(c3C2=O)C2=NC3(CCN(CC(C)C)CC3)NC2=C(NC(=O)/C(C)=C\C=C\[C@H](C)[C@H](O)[C@@H](C)[C@@H](O)[C@@H](C)[C@H](OC(C)=O)[C@@H]1C)C4=O` [rifabutin, Rifabutin], the drug-susceptibility test result in assay [1] is “resistance”. In addition, in assay [2], the resistance classification entry is on record as “low-level resistance” and the “rifabutin MIC” value is not above 5 µg/mL.
